From patent US6410792B1, “Amide derivatives and methods for using the same as selective neuropeptide Y receptor antagonists” (Bayer Corporation, priority 1997, dated 2002) come the findings set out here.

Where two headings read alike, the source gives them in different places.

Experiment [1] addresses T1, Y2 receptor (Homo sapiens, UniProt P49146).
T1 sequence (P49146 1-381): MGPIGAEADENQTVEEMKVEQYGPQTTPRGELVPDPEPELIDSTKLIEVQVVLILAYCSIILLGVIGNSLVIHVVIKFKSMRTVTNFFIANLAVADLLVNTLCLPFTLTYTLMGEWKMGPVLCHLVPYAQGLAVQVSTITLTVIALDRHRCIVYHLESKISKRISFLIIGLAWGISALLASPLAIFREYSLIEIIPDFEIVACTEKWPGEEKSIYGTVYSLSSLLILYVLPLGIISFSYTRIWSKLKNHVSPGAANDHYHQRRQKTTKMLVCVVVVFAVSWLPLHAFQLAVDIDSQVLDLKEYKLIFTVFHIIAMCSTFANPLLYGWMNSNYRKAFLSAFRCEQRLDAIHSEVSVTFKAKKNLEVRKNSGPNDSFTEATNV
As to the kind of experiment: Y2 receptor binding assay ([125I]PYY, membrane protein). As to conditions: read-out: hNPY2 IC50. Here is the method: B. Human Y2 and Y4/PP1 Receptor Binding Assays
Binding assays were performed on GF/C Millipore 96-well plates pretreated with 0.02% polyethylenimine. The binding buffer for rat Y2 binding is Krebs-Ringer bicarbonate (pH 7.4) containing 0.01% BSA and 0.005% bacitracin. Samples consist of membrane protein, 25 pM [1251]PYY and drug dilution. Nonspecific binding is defined by 1 μM NPY. The binding buffer for human Y4/PP1 binding consists of 137 mM NaCl, 5.4 mM KCl, 0.44 mM KH2PO4, 1.26 mM CaCl2, 0.81 mM MgSO4, 20 mM HEPES, 1 mM dithiothreitol, 0.1% bacitracin, 100 mg/l streptomycin sulfate, 1 mg/l aprotinin, 10 mg/ml soybean trypsin inhibitor and 0.3% BSA, pH 7.4. Samples consist of membrane protein, 50 pM human [1251]human PP (hPP: NEN DuPont, Boston, Mass.) and drug dilution. 1 μM hPP is used to define nonspecific binding.
After a 2 hour incubation at room temperature with constant mixing, the samples are aspirated on a vacuum manifold, and rinsed with ice-cold binding buffer. The amount of radioactivity in each well is quantitated with either gamma counting or liquid scintillation.

In experiment [2] the target is T2, Human NPY5 receptor (Homo sapiens, UniProt Q15761).
T2 sequence (Q15761 1-445): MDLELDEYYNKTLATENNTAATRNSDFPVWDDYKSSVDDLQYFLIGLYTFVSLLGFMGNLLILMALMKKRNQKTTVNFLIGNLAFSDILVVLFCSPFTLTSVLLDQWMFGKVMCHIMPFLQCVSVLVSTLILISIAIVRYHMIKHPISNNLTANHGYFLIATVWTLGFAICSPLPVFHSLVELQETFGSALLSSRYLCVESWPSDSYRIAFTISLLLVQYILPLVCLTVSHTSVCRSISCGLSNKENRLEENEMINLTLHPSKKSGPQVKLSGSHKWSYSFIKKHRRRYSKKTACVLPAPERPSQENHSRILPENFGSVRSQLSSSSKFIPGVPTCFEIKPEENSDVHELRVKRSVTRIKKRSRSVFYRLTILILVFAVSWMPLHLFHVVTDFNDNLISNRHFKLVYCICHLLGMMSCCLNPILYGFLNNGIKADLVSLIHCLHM
As to the kind of experiment: Human NPY5 receptor binding assay ([125I]PYY, membrane protein). The method, then: C. Human and Rat NPY5 Receptor Binding Assays
Binding assays are performed on GF/C Millipore 96well plates pretreated with 0.02% polyethylenimine. The binding buffer is 25 mM Tris, 120 mM NaCl, 5 mM KCl, 1.2 mM KH2PO4, 2.5 mM CaCl2, 1.2 mM MgSO4, 0.1% BSA and 0.5 mg/ml bacitracin, pH 7.4. Samples consist of membrane protein, 75-100 pM [125I]PYY (porcine, NEN-DuPont) and drug dilution. Nonspecific binding is defined by 1 μM PYY. After a 2 hour incubation at room temperature with constant mixing, the samples are aspirated on a vacuum manifold, and rinsed with ice-cold binding buffer. The amount of radioactivity in each well is quantitated with either gamma counting or liquid scintillation.

Where [3] appears, read: [125I]PYY binding, membrane protein.
Where [4] appears, read: [125I]PYY binding, read-out: hNPY5 IC50.

One may read the IC50 as the concentration that inhibits the measured activity by half. Take `O=C(CN1CCC(CCCC2CCN(CCO)CC2)CC1)Nc1ccc(C2CCCCC2)cc1` [Compound 68, N-(4-Cyclohexyl-phenyl)-2-(4-{3-[1-(2-hydroxy-ethyl)-piperidin-4-yl]-propyl}-piperidin-1-yl)-acetamide]: the IC50 in experiment [1] (setting [3]) was greater than 5 µM; in experiment [2] (setting [4]), 9.7 µM.

As to `NC(=O)C1(Nc2ccccc2)CCN(CC(=O)Nc2ccc(C3CCCCC3)cc2)CC1` [Compound 31, 1-[(4-Cyclohexyl-phenylcarbamoyl)-methyl]-4-phenylamino-piperidine-4-carboxylic acid amide], the values for the IC50 in experiment [1] (setting [3]) and in experiment [2] (setting [4]) were greater than 5 µM and 1.2 µM, respectively.

In the case of “(2R,4R)-1-[(4-Benzoyl-phenylcarbamoyl)-methyl]-4-hydroxy-pyrrolidine-2-carboxylic acid [Compound 101]”, the IC50 in experiment [1] (setting [3]) was greater than 5 µM; in experiment [2] (setting [4]) it was 6.1 µM.

For the compound “N-(4-Cyclohexyl-phenyl)-2-[4-hydroxy-4-(3-trifluoromethyl-phenyl)-piperidin-1-yl]-acetamide [Compound 62]”, the figures for the IC50 in experiment [1] (setting [3]) and in experiment [2] (setting [4]) were greater than 5 µM and 0.42 µM, respectively.

As for `O=C(CN1CCC(O)CC1)Nc1ccc(C(=O)c2ccccc2)cc1` [Compound 42, N-(4-Benzoyl-phenyl)-2-(4-hydroxy-piperidin-1-yl)-acetamide], the IC50 is greater than 5 µM in experiment [1] (setting [3]) and 1.6 µM in experiment [2] (setting [4]).

With `O=C(CN1CC[C@@H](O)C1)Nc1ccc(C2CCCCC2)cc1` [Compound 80, N-(4-Cyclohexyl-phenyl)-2-(3R-hydroxy-pyrrolidin-1-yl)-acetamide], the IC50 in experiment [1] (setting [3]) is greater than 5 µM; in experiment [2] (setting [4]), 1.4 µM.

For `NC(=O)C1CCCN1CC(=O)Nc1ccc(C(=O)c2ccccc2)cc1` (stereo not shown) [Compound 123, 1-[(4-Benzoyl-phenylcarbamoyl)-methyl]-pyrrolidine-2-carboxylic acid amide], the values for the IC50 in experiment [1] (setting [3]) and in experiment [2] (setting [4]) were greater than 5 µM and 0.91 µM, respectively.

Turning to `CCCC(=O)C1(c2ccccc2)CCN(CC(=O)Nc2ccc(C3CCCCC3)cc2)CC1` [Compound 75, 2-(4-Butyryl-4-phenyl-piperidin-1-yl)-N-(4-cyclohexyl-phenyl)-acetamide], the values for the IC50 in experiment [1] and in experiment [2] (setting [4]) were greater than 5 µM and 0.009 µM, respectively.

Turning to `O=C(CNCC1CCNCC1)Nc1ccc(C(=O)c2ccccc2)cc1` [Compound 43, N-(4-Benzoyl-phenyl)-2-[(piperidin-4-ylmethyl)-amino]-acetamide], the IC50 in experiment [1] (setting [3]) was greater than 5 µM; in experiment [2] (setting [4]), greater than 10 µM.

Take `C=C(C)[C@@H]1CN(CC(=O)Nc2ccc(C3CCCCC3)cc2)[C@H](C(=O)O)[C@@H]1CC(=O)O` [Compound 115, (2S,3R,4R)-3-Carboxymethyl-1-[(4-cyclohexyl-phenylcarbamoyl)-methyl]-4-isopropenyl-pyrrolidine-2-carboxylic acid]: the IC50 in experiment [1] (setting [3]) was greater than 5 µM; in experiment [2] (hNPY5 IC50, [125I]PYY binding) it was greater than 10 µM.

On to `CN(C)C1(C(N)=O)CCN(CC(=O)Nc2ccc(C(=O)c3ccccc3)cc2)CC1` [Compound 64, 1-[(4-Benzoyl-phenylcarbamoyl)-methyl]-4-dimethylamino-piperidine-4-carboxylic acid amide], for which the IC50 in experiment [1] (setting [3]) was greater than 5 µM; in experiment [2] (setting [4]), 4.8 µM.

Consider `CC1(C)C[C@@H]2C[C@@](C)(CN2CC(=O)Nc2ccc(C3CCCCC3)cc2)C1` [Compound 94, N-(4-Cyclohexyl-phenyl)-2-((1S,5R)-1,3,3-trimethyl-6-aza-bicyclo[3.2.1]oct-6-yl)-acetamide], for which the figures for the IC50 in experiment [1] (setting [3]) and in experiment [2] (setting [4]) were greater than 5 µM and 3.2 µM, respectively.

For the compound `O=C(CN1CCC(CCCC2CCNCC2)CC1)Nc1ccc(C2CCCCC2)cc1` [Compound 23, N-(4-Cyclohexyl-phenyl)-2-[4-(3-piperidin-4-yl-propyl)-piperidin-1-yl]-acetamide], the IC50 was greater than 5 µM in experiment [1] (setting [3]) and greater than 10 µM in experiment [2] (setting [4]).

As for `O=C(CN(CCO)c1ccccc1)Nc1ccc(C(=O)c2ccccc2)cc1` [Compound 17, N-(4-Benzoyl-phenyl)-2-[(2-hydroxy-ethyl)-phenyl-amino]-acetamide], the IC50 in experiment [1] (setting [3]) was greater than 5 µM; in experiment [2] (setting [4]) it was 1.2 µM.

Take `O=C(CN1CCC[C@@H]1C(=O)O)Nc1ccc(C2CCCCC2)cc1` [Compound 117, (2R)-1-[(4-Cyclohexyl-phenylcarbamoyl)-methyl]-pyrrolidine-2-carboxylic acid]: the results for the IC50 in experiment [1] (setting [3]) and in experiment [2] (setting [4]) were greater than 5 µM and 3 µM, respectively.

As to `CC1(C)CC(C(N)=O)C(C)(C)N1CC(=O)Nc1ccc(C(=O)c2ccccc2)cc1` (stereo not shown) [Compound 119, 1-[(4-Benzoyl-phenylcarbamoyl)-methyl]-2,2,5,5-tetramethyl-pyrrolidine-3-carboxylic acid amide], the figures for the IC50 in experiment [1] (setting [3]) and in experiment [2] (setting [4]) were greater than 5 µM and 3.6 µM, respectively.

As to `O=C(CN1CCC(O)(Cc2ccccc2)CC1)Nc1ccc(C(=O)c2ccccc2)cc1` [Compound 19, N-(4-Benzoyl-phenyl)-2-(4-benzyl-4-hydroxy-piperidin-1-yl)-acetamide], the concentration for half-maximal inhibition (IC50) was greater than 5 µM in experiment [1] (setting [3]) and 0.4 µM in experiment [2] (setting [4]).

Turning to `COC[C@@H]1CCCN1CC(=O)Nc1ccc(C(=O)c2ccccc2)cc1` [Compound 104, N-(4-Benzoyl-phenyl)-2-(2S-methoxymethyl-pyrrolidin-1-yl)-acetamide], the IC50 in experiment [1] (setting [3]) was greater than 5 µM; in experiment [2] (setting [4]), 0.49 µM.

As to `O=C(CN1CCC(O)(CCCc2ccccc2)CC1)Nc1ccc(C(=O)c2ccccc2)cc1` [Compound 60, N-(4-Benzoyl-phenyl)-2-[4-hydroxy-4-(3-phenyl-propyl)-piperidin-1-yl]-acetamide], the IC50 in experiment [1] (setting [3]) is greater than 5 µM; in experiment [2] (setting [4]), 4.2 µM.

Regarding `Cc1ccc(C2(O)CCN(CC(=O)Nc3ccc(C(=O)c4ccccc4)cc3)CC2)cc1` [Compound 71, N-(4-Benzoyl-phenyl)-2-(4-hydroxy-4-p-tolyl-piperidin-1-yl)-acetamide], the IC50 in experiment [1] (setting [3]) was greater than 5 µM; in experiment [2] (setting [4]), 0.22 µM.

Regarding `O=C(CN1CCC[C@H]1CN1CCCC1)Nc1ccc(C2CCCCC2)cc1` [Compound 79, N-(4-Cyclohexyl-phenyl)-2-(2S-pyrrolidin-1-ylmethyl-pyrrolidin-1-yl)-acetamide], the IC50 in experiment [1] (setting [3]) was greater than 5 µM; in experiment [2] (setting [4]) it was 3.5 µM.

Turning to `O=C(CN1CCC[C@H]1C(=O)OCc1ccccc1)Nc1ccc(C2CCCCC2)cc1` [Compound 95, (2S)-1-[(4-Cyclohexyl-phenylcarbamoyl)-methyl]-pyrrolidin-2-carboxylic acid benzyl ester], the IC50 in experiment [1] (setting [3]) was greater than 5 µM; in experiment [2] (setting [4]), 1.6 µM.

In the case of `CCN(CC(=O)Nc1ccc(C(=O)c2ccccc2)cc1)Cc1ccncc1` [Compound 21, N-(4-Benzoyl-phenyl)-2-(ethyl-pyridin-4-ylmethyl-amino)-acetamide], the IC50 is greater than 5 µM in experiment [1] (setting [3]) and 0.63 µM in experiment [2] (setting [4]).

For the compound `CC(O)C1CCN(CC(=O)Nc2ccc(C3CCCCC3)cc2)CC1` (stereo not shown) [Compound 59, N-(4-Cyclohexyl-phenyl)-2-[4-(1-hydroxy-ethyl)-piperidin-1-yl]-acetamide], the IC50 is greater than 5 µM in experiment [1] (setting [3]) and 0.65 µM in experiment [2] (setting [4]).

On to `O=C(CN1CCC(N2CCCC2)CC1)Nc1ccc(C2CCCCC2)cc1` [Compound 29], for which the values for the IC50 in experiment [1] (setting [3]) and in experiment [2] (setting [4]) were greater than 5 µM and 4.4 µM, respectively.

Turning to `O=C(CN1CCC[C@H]1CO)Nc1ccc(C2CCCCC2)cc1` [Compound 84, N-(4-Cyclohexyl-phenyl)-2-(2S-hydroxymethyl-pyrrolidin-1-yl)-acetamide], the IC50 was greater than 5 µM in experiment [1] (setting [3]) and 0.93 µM in experiment [2] (setting [4]).
